Data on 10 compounds can be found in ChEMBL document CHEMBL1201862, “PubChem BioAssay data set” (2004).

Among the test systems are MCF7; UACC-257; M14; MDA-MB-231; SW-620; SK-MEL-28; HCT-116; CCRF-CEM; HOP-62; SF-268; SF-539; NCI-H522; A498; 786-0; U-251; NCI/ADR-RES; SN12C; A549; HCT-15; SNB-75.
What all share (assay): inhibition of tumour cell growth, NCI panel, 48 h

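Dose response: 5 concentrations. Exposure: 48 h. Format: 96-well plates. Endpoint: linear interpolation; highest concentration if not reached. Abbreviation: GI50, concentration required for 50% inhibition of growth.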 Activity calls are given as the source filed them. Cut-off read from the data, not from the text of the source: active = GI50 up to about 1.1 µM and inactive = higher.

As for `Cc1cc(C)c2c(O)cc(-c3cccc(Cl)c3)nc2n1`, the GI50 in the experiment with MCF7 is 0.208 µM (active); in the experiment on UACC-257, 1.95 µM (inactive); in the experiment with M14 it was 0.134 µM (active); in the experiment with MDA-MB-231, 0.256 µM (active); with SW-620 it was 0.0578 µM (active); in the experiment on SK-MEL-28, 5.09 µM (inactive). Besides, the GI50 was 0.0791 µM (active) with HCT-116; 0.229 µM (active) with CCRF-CEM; 0.438 µM (active) in the experiment with HOP-62; 1.05 µM (active) in the experiment on SF-268; 0.119 µM (active) in the experiment on SF-539; 0.0356 µM (active) in the experiment with NCI-H522. Besides, the GI50 in the experiment with A498 was 0.514 µM (active); with 786-0 it was 0.261 µM (active); in the experiment with U-251, 0.206 µM (active); in the experiment on NCI/ADR-RES, 0.254 µM (active); with SN12C, 0.187 µM (active); in the experiment with A549, 0.227 µM (active). The results for the GI50 in the experiment on HCT-15 and in the experiment on SNB-75 were 0.101 µM and 0.166 µM (active), respectively.
Regarding `COC1=C(N=[N+]=[N-])C(=O)c2ncccc2C1=O`, the GI50 with MCF7 was 1.82 µM (inactive); in the experiment on UACC-257, 4.34 µM (inactive); in the experiment with M14, 3.73 µM (inactive); in the experiment with MDA-MB-231 it was 12.4 µM (inactive); in the experiment with SW-620, 1.95 µM (inactive); with SK-MEL-28 it was 14.3 µM (inactive). The GI50 in the experiment on HCT-116 is 2.65 µM (inactive); in the experiment with CCRF-CEM, 0.401 µM (active); in the experiment on HOP-62 it was 15.8 µM (inactive); in the experiment with SF-268 it was 14.5 µM (inactive); in the experiment with SF-539, 16 µM (inactive); with NCI-H522, 1.9 µM (inactive). The GI50 with A498 is 17.1 µM (inactive); in the experiment on 786-0, 8.79 µM (inactive); in the experiment on U-251, 14.6 µM (inactive); in the experiment with NCI/ADR-RES it was 10 µM (inactive); in the experiment with SN12C, 15.5 µM (inactive); in the experiment with A549, 16.6 µM (inactive). The results for the GI50 in the experiment with HCT-15 and in the experiment on SNB-75 were 7.83 µM and 13.1 µM (inactive), respectively.
For the compound `CS(=O)(=O)CCC1CCC(=O)O1` (centres undefined), the GI50 was 58.9 µM (inactive) in the experiment with MCF7; > 100 µM (inactive) in the experiment on UACC-257; > 100 µM (inactive) in the experiment with M14; > 100 µM (inactive) in the experiment on MDA-MB-231; > 100 µM (inactive) with SW-620; > 100 µM (inactive) in the experiment on SK-MEL-28. Besides, the GI50 is 48.6 µM (inactive) with HCT-116; > 10 µM (inactive) in the experiment on CCRF-CEM; 40.5 µM (inactive) in the experiment on HOP-62; 51.9 µM (inactive) in the experiment on SF-268; > 100 µM (inactive) in the experiment with SF-539; 31.2 µM (inactive) in the experiment on NCI-H522. Further, the GI50 in the experiment with A498 was > 100 µM (inactive); with 786-0, > 100 µM (inactive); in the experiment with U-251, > 100 µM (inactive); with NCI/ADR-RES, > 100 µM (inactive); in the experiment on SN12C, 68.1 µM (inactive); in the experiment on A549 it was 43.6 µM (inactive). In addition, the values for the GI50 in the experiment on HCT-15 and in the experiment on SNB-75 were over 100 µM and 97.9 µM (inactive), respectively.
As for `CS(=O)(=O)c1ccc(C2=C(c3ccccc3)C(=O)OC2)cc1` [ROFECOXIB], the GI50 in the experiment with MCF7, with UACC-257, in the experiment on M14, in the experiment with MDA-MB-231, with SW-620 and in the experiment on SK-MEL-28 was > 100 µM (inactive) throughout. The GI50 in the experiment with HCT-116, in the experiment on CCRF-CEM, in the experiment on HOP-62, in the experiment on SF-268, in the experiment with SF-539 and with NCI-H522 was > 100 µM (inactive) throughout. The GI50 with A498, in the experiment with 786-0, in the experiment on U-251, in the experiment with NCI/ADR-RES, in the experiment on SN12C and in the experiment on A549 was > 100 µM (inactive) in each case. The GI50 in the experiment with HCT-15 is over 100 µM; with SNB-75, > 100 µM (inactive).
Take `OCc1ccccc1O[C@H]1O[C@H](CO)[C@@H](O)[C@H](O)[C@H]1O`: the GI50 in the experiment on MCF7, in the experiment on UACC-257, in the experiment on M14, with MDA-MB-231, in the experiment on SW-620 and in the experiment on SK-MEL-28 was > 100 µM (inactive) in each case. In addition, the GI50 with HCT-116, in the experiment with CCRF-CEM, in the experiment on HOP-62, in the experiment with SF-268, in the experiment with SF-539 and in the experiment with NCI-H522 was > 100 µM (inactive) each time. Further, the GI50 in the experiment on A498, in the experiment with 786-0, in the experiment on U-251, in the experiment with NCI/ADR-RES, with SN12C and with A549 was > 100 µM (inactive) in each case. Moreover, the figures for the GI50 in the experiment with HCT-15 and with SNB-75 were over 100 µM and > 100 µM (inactive), respectively.
For the compound `COC(=O)N/N=C(\C)C(CN1CCOCC1)C(c1ccccc1)c1cc2ccccc2oc1=O` (centres undefined), the GI50 with MCF7 was > 100 µM (inactive); in the experiment on UACC-257 it was 82.4 µM (inactive); with M14, > 100 µM (inactive); with MDA-MB-231, > 100 µM (inactive); in the experiment with SW-620, > 100 µM (inactive); in the experiment with SK-MEL-28, > 100 µM (inactive). For the same compound, the GI50 is > 100 µM (inactive) with HCT-116; 44.6 µM (inactive) in the experiment on CCRF-CEM; > 100 µM (inactive) in the experiment with HOP-62; > 100 µM (inactive) in the experiment on SF-268; > 100 µM (inactive) in the experiment with SF-539; > 100 µM (inactive) with NCI-H522. The GI50 was > 100 µM (inactive) in the experiment with A498; > 100 µM (inactive) in the experiment with 786-0; > 100 µM (inactive) with U-251; 55.8 µM (inactive) in the experiment with NCI/ADR-RES; > 100 µM (inactive) in the experiment with SN12C; > 100 µM (inactive) in the experiment on A549. Also, the GI50 in the experiment with HCT-15 is over 100 µM; in the experiment with SNB-75 it was > 100 µM (inactive).
`O=S(=O)(O)c1cc(/N=N/c2cc(S(=O)(=O)O)c3ccccc3c2O)ccc1/C=C/c1ccc(/N=N/c2cc(S(=O)(=O)O)c3ccccc3c2O)cc1S(=O)(=O)O`: the GI50 is 310 µM (inactive) with MCF7; > 291 µM (inactive) in the experiment with UACC-257; 131 µM (inactive) in the experiment on M14; 27.3 µM (inactive) in the experiment with MDA-MB-231; > 605 µM (inactive) in the experiment on SW-620; 594 µM (inactive) in the experiment with SK-MEL-28. In addition, the GI50 is > 213 µM (inactive) with HCT-116; 20.6 µM (inactive) in the experiment with CCRF-CEM; > 668 µM (inactive) with HOP-62; > 800 µM (inactive) with SF-268; > 386 µM (inactive) in the experiment with SF-539; > 492 µM (inactive) with NCI-H522. The GI50 in the experiment with A498 is > 100 µM (inactive); with 786-0 it was > 684 µM (inactive); in the experiment on U-251, > 716 µM (inactive); in the experiment with NCI/ADR-RES, 427 µM (inactive); with SN12C, > 743 µM (inactive); in the experiment with A549, > 480 µM (inactive). Besides, the GI50 is 98.6 µM with HCT-15 and > 458 µM (inactive) in the experiment on SNB-75.
Regarding `O=C1C(Nc2ccc(S(=O)(=O)Nc3cnc4ccccc4n3)cc2)=C/C(=N\c2ccc(S(=O)(=O)Nc3cnc4ccccc4n3)cc2)c2ccccc21`, the GI50 in the experiment on MCF7 was 19.5 µM (inactive); with UACC-257, 37.7 µM (inactive); with M14 it was 18.5 µM (inactive); with MDA-MB-231 it was 23.1 µM (inactive); in the experiment on SW-620, 17.5 µM (inactive); with SK-MEL-28, 18.1 µM (inactive). Besides, the GI50 with HCT-116 was 18.3 µM (inactive); in the experiment with CCRF-CEM it was 24 µM (inactive); with HOP-62, 18.3 µM (inactive); in the experiment with SF-268, 20 µM (inactive); in the experiment on SF-539 it was 18.9 µM (inactive); with NCI-H522 it was 16.8 µM (inactive). Also, the GI50 in the experiment with A498 was 15.3 µM (inactive); in the experiment on 786-0, 17.2 µM (inactive); in the experiment with U-251 it was 19.1 µM (inactive); in the experiment with NCI/ADR-RES, 44.6 µM (inactive); in the experiment on SN12C, 16.7 µM (inactive); in the experiment with A549 it was 19.7 µM (inactive). The GI50 in the experiment with HCT-15 was 18.4 µM; with SNB-75, 14.6 µM (inactive).
For the compound `CCCCCCCC/C=C\CCCCCCC(F)C(=O)O` (centres undefined), the GI50 in the experiment with MCF7, in the experiment on UACC-257, with M14, in the experiment with MDA-MB-231, in the experiment with SW-620 and in the experiment with SK-MEL-28 was > 12.5 µM (inactive) each time. The GI50 with HCT-116, in the experiment on CCRF-CEM, in the experiment on HOP-62, in the experiment on SF-268, with SF-539 and in the experiment on NCI-H522 was > 12.5 µM (inactive) throughout. Besides, the GI50 with A498, with 786-0, with U-251, in the experiment with NCI/ADR-RES, in the experiment on SN12C and with A549 was > 12.5 µM (inactive) in each case. Further, the GI50 was over 12.5 µM with HCT-15 and > 12.5 µM (inactive) in the experiment with SNB-75.
Regarding `O=CC(NC(=O)N(CCCl)N=O)C(O)C(O)C(O)CO` (centres undefined), the GI50 in the experiment with MCF7 was 948 µM (inactive); with UACC-257, 1050 µM (inactive); with M14, 748 µM (inactive); with MDA-MB-231, > 1100 µM (inactive); with SW-620, 832 µM (inactive); in the experiment on SK-MEL-28, 817 µM (inactive). Moreover, the GI50 with CCRF-CEM was 348 µM (inactive); in the experiment on HOP-62, 136 µM (inactive); in the experiment on SF-268, 114 µM (inactive); in the experiment on SF-539 it was 119 µM (inactive); in the experiment on NCI-H522, 1160 µM (inactive); with A498 it was 1120 µM (inactive). Further, the GI50 with 786-0 was 56.6 µM (inactive); in the experiment on U-251 it was 179 µM (inactive); in the experiment on NCI/ADR-RES, 953 µM (inactive); in the experiment on SN12C, 902 µM (inactive); in the experiment with A549, 753 µM (inactive); in the experiment with HCT-15, 1190 µM. Also, in the experiment with SNB-75, the GI50 was 262 µM (inactive).
